Like-named read-outs stand apart in the source and are kept apart here.
Assays:
[1] = log P by reversed-phase HPLC (EEC Directive 79/831 Annex V.A8); assay type: physicochemical; conditions: for chromatographic logP: reversed-phase C18 HPLC column
Text: NMR data and log P values: log P (HCOOH)=log P[a] log P (neutral)=log P[b]
^[a] […] Called log P (HCOOH) in the table.
^[b] […] Called log P (neutral) in the table.

[2] = test system: Boophilus microplus; test: Boophilus microplus test (BOOPMI injection); assay type: in vivo; conditions: 20 μg/animal, injection into the abdomen, after 7 days
Method: Boophilus microplus test (BOOPMI injection) • Solvent: dimethyl sulfoxide To produce a suitable preparation of active compound, 10 mg of active compound are mixed with 0.5 ml of solvent and the concentrate is diluted with solvent to the desired concentration. The active compound solution is injected into the abdomen (Boophilus microplus), and the animals are transferred into dishes and stored in a climate-controlled room. Efficacy is assessed after 7 days by laying of fertile eggs. Eggs which are not visibly fertile are stored in a climate-controlled cabinet until the larvae hatch after about 42 days.

[3] = test system: Myzus persicae; test: Myzus persicae spray test (MYZUPE); assay type: in vivo; conditions: Chinese cabbage leaf discs, after 6 days
Method: Myzus persicae—spray test (MYZUPE)
• Solvent: 78 parts by weight of acetone • 1.5 parts by weight of dimethylformamide • Emulsifier: 0.5 part by weight of alkylaryl polyglycol ether
After 6 days, the efficacy in % is determined. 100% means that all the aphids have been killed; 0% means that no aphids have been killed.

[4] = test system: Aphis gossypii; test: Aphis gossypii spray test; assay type: in vivo; conditions: 100 ppm, cotton plants, after 6 days
Method: Aphis gossypii—spray test
(§1) • Solvent: 7 parts by weight of dimethylformamide • Emulsifier: alkylaryl polyglycol ether
(§2) To produce further test concentrations, the preparation is diluted with emulsifier-containing water. If the addition of ammonium salts or/and penetrants is required, these are each added in a concentration of 1000 ppm to the formulation solution.
After 6 days, the kill in % is determined. 100% means that all the aphids have been killed; 0% means that no aphids have been killed.

[5] = test system: Bemisia tabaci; test: Bemisia tabaci spray test; assay type: in vivo; conditions: cotton plants, after 8 days
Method: Bemisia Tabaci—Spray Test
as §1, §2
After 8 days, the efficacy in % is determined. 100% means that all the whiteflies have been killed; 0% means that none of the whiteflies have been killed.

[6] = test system: Nilaparvata lugens; test: Nilaparvata lugens spray test (solvent dimethylformamide, 7 days); assay type: in vivo; conditions: 20 ppm, rice plants, after 7 days
Method: (§3) Nilaparvata lugens—spray test
If the addition of ammonium salts or/and penetrants is required, these are each added in a concentration of 1000 ppm to the formulation solution.
After 7 days, the efficacy in % is determined.

[7] = test system: Nephotettix cincticeps; test: Nephotettix cincticeps test (NEPHCI); assay type: in vivo; conditions: 100 ppm, rice plants, after 14 days
Method: Nephotettix cincticeps test (NEPHCI)
In the event that addition of ammonium salts or/and penetrants (rapeseed oil methyl ester) is required, these are each pipetted in a concentration of 1000 ppm after the finished formulation solution has been diluted.
After 14 days, the kill in % is determined. 100% means that all leafhoppers have been killed; 0% means that none of the leafhoppers have been killed.

[8] = test system: Meloidogyne incognita; conditions: 20 ppm, lettuce, after 14 days
Method: Meloidogvne incognita test (MELGIN)
• Solvent: 125.0 parts by weight of acetone
The lettuce seeds germinate and the plants develop. The galls develop on the roots.
After 14 days, the nematicidal efficacy in % is determined by the formation of galls.

[9] = test system: Phaedon cochleariae; test: Phaedon cochleariae spray test (PHAECO); assay type: in vivo; conditions: 500 g/ha, Chinese cabbage leaf discs, after 7 days
Method: Phaedon cochleariae—spray test (PHAECO)
(§4) • Solvent: 78.0 parts by weight of acetone • 1.5 parts by weight of dimethylformamide • Emulsifier: 0.5 part by weight of alkylaryl polyglycol ether
After 7 days, the efficacy in % is determined. 100% means that all the beetle larvae have been killed; 0% means that no beetle larvae have been killed.

[10] = test system: Nilaparvata lugens; conditions: 500 g/ha, rice plants, after 4 days
Method: as §3
• Solvent: 52.5 parts by weight of acetone • 7 parts by weight of dimethylformamide • Emulsifier: alkylaryl polyglycol ether
To produce further test concentrations, the preparation is diluted with emulsifier-containing water.
After 4 days, the efficacy in % is determined. 100% means that all of the planthoppers have been killed; 0% means that none of the planthoppers have been killed.

[11] = test system: Haemonchus contortus; test: Haemonchus contortus test (HAEMCO); assay type: in vivo; conditions: after 5 days
Text: Haemonchus contortus-test ([…]) • Solvent: dimethyl sulfoxide […] Vessels containing the active compound preparation of the desired concentration are populated with about 40 larvae of the red stomach worm (Haemonchus contortus).

[12] = test system: Cooperia curticei; test: Cooperia curticei test (COOPCU); assay type: in vivo; conditions: after 5 days
Method: Cooperia curticei test (COOPCU)
• Solvent: dimethyl sulfoxide
To produce a suitable preparation of active compound, 10 mg of active compound are mixed with 0.5 ml of dimethyl sulfoxide and the concentrate is diluted with “Ringer's solution” to the desired concentration.
Vessels containing the active compound preparation of the desired concentration are populated with about 40 nematode larvae (Cooperia curticei).
After 5 days, the kill in % is determined. 100% means that all the larvae have been killed; 0% means that none of the larvae have been killed.

[13] = test system: Nippostrongylus brasiliensis; conditions: 10 ppm, adult worms, 37° C., OD at 405 nm versus negative control
Method: Nippostrongylus brasiliensis test (NIPOBR)
Test method for in vitro experiments with Nippostrongylus brasiliensis
Adult Nippostrongylus brasiliensis is isolated from the small intestine of female Wistar rats and transferred into buffer solution containing 100 U/ml penicillin, 0.1 mg/ml streptomycin and 2.5 μg/ml amphotericin B.
The incubation of the worms (both sexes) is carried out in 1.0 ml of the medium also used for determining the acetylcholinesterase activity.
The compounds are dissolved in DMSO and added to the incubation medium such that final concentrations of 10 and 1 μg/ml, respectively, are present. The controls contain only DMSO.
Incubation is carried out at 37° C. and 5% CO2.
The enzyme determination is carried out using an aliquot of the medium. The AChE to be measured cleaves the substrate acetylthiocholine iodide (which is present as the iodide salt) into the products acetate and thiocholine.
In the subsequent reaction, thiocholine forms, with dithionitrobenzoic acid (DTNB, Ellman's reagent), a yellow dye (thionitrobenzoate).
The intensity of the color (=activity of AChE) is determined via the optical density (OD) photometrically at 405 nm and compared to the OD of the negative control.

[14] = test system: Spodoptera frugiperda; test: Spodoptera frugiperda spray test (SPODFR); assay type: in vivo; conditions: 500 g/ha, maize leaf discs, after 7 days
Method: Spodoptera frugiperda—spray test (SPODFR)
• Solvent: 78.0 parts by weight of acetone • 1.5 parts by weight of dimethylformamide • Emulsifier: 0.5 parts by weight of alkylaryl polyglycol ether
After 7 days, the efficacy in % is determined. 100% means that all the caterpillars have been killed; 0% means that no caterpillars have been killed.

[15] = test system: Tetranychus urticae; test: Tetranychus urticae spray test, OP-resistant (TETRUR); assay type: in vivo; conditions: 500 g/ha, bean leaf discs, after 6 days
Method: Tetranychus urticae—spray test, OP-resistant (TETRUR)
as §4
After 6 days, the efficacy in % is determined. 100% means that all the spider mites have been killed; 0% means that no spider mites have been killed.

[16] = acidic range, pH 2.7, 0.1% aqueous formic acid/acetonitrile
[17] = neutral range, pH 7.8, aqueous ammonium hydrogencarbonate/acetonitrile

Cc1cnccc1-c1cnc2cc(C(F)(F)F)ccc2n1 [Example I-2, 2-(3-Methylpyridin-4-yl)-6-(trifluoromethyl)quinoxaline]
chromatographic logP ([1]; acidic range, pH 2.7, 0.1% aqueous formic acid/acetonitrile, read-out: logP [a] = log P (HCOOH)): 2.14
chromatographic logP ([1]; neutral range, pH 7.8, aqueous ammonium hydrogencarbonate/acetonitrile, read-out: logP [b] = log P (neutral)): 2.89
efficacy (laying of fertile eggs) [2]: 85%
efficacy (aphids killed) ([3]; 750 g/ha): 90%
efficacy (kill of aphids) [4]: 80%
efficacy (whiteflies killed) ([5]; 20 ppm): 100%
efficacy (planthoppers killed) [6]: 100%
efficacy (kill of leafhoppers) [7]: 100%

FC(F)(F)c1ccc2nc(-c3ccncc3)cnc2c1 [Example I-7]
logP [a] = log P (HCOOH) [1, 16]: 2.17
logP [b] = log P (neutral) [1, 17]: 2.75
efficacy (laying of fertile eggs) [2]: 80%
nematicidal efficacy (formation of galls) [8]: 90%
efficacy (beetle larvae killed) [9]: 100%
efficacy (aphids killed) ([3]; 500 g/ha): 90%
efficacy (whiteflies killed) ([5]; 100 ppm): 100%
efficacy (planthoppers killed) [10]: 90%

FC(F)(F)c1ccc2nc(-c3cccnc3)cnc2c1 [Example I-8]
logP [a] = log P (HCOOH) [1, 16]: 2.46
efficacy (kill of larvae) ([11]; 100 ppm): 100%
efficacy (kill of larvae) ([12]; 100 ppm): 100%
efficacy (category of AChE inhibition) [13]: 84% (84% (60-84% inhibition))

FC(F)(F)c1ccc2ncc(-c3ccncc3)nc2c1 [Example I-9]
logP [a] = log P (HCOOH) [1, 16]: 2.13
logP [b] = log P (neutral) [1, 17]: 2.75
efficacy (kill of larvae) ([11]; 100 ppm): 100%
efficacy (kill of larvae) ([12]; 100 ppm): 100%
efficacy (beetle larvae killed) [9]: 100%
efficacy (aphids killed) ([3]; 500 g/ha): 90%
efficacy (kill of aphids) [4]: 85%
efficacy (category of AChE inhibition) [13]: 100% (100% (>84-100% inhibition))

CCSc1ccccc1-c1cnc2cc(C(F)(F)F)ccc2n1 [Example I-14]
logP [a] = log P (HCOOH) ([1]; pH 2.7): 4.80
logP [b] = log P (neutral) ([1]; pH 7.8): 4.78
efficacy (beetle larvae killed) [9]: 100%
efficacy (caterpillars killed) [14]: 100%
efficacy (spider mites killed) [15]: 100%

CC[S+]([O-])c1ccccc1-c1cnc2cc(C(F)(F)F)ccc2n1 (stereo not shown) [Example I-15]
logP [a] = log P (HCOOH) ([1]; pH 2.7): 2.79
logP [b] = log P (neutral) ([1]; pH 7.8): 2.78
efficacy (beetle larvae killed) [9]: 83%
efficacy (caterpillars killed) [14]: 100%
efficacy (spider mites killed) [15]: 100%
efficacy (whiteflies killed) ([5]; 100 ppm): 90%

CCS(=O)(=O)c1ccccc1-c1cnc2cc(Cl)ccc2n1 [Example I-29]
logP [a] = log P (HCOOH) ([1]; pH 2.7): 2.81
logP [b] = log P (neutral) ([1]; pH 7.8): 2.82
efficacy (caterpillars killed) [14]: 83%

Cc1cnccc1-c1cnc2cc3c(cc2n1)OC(F)(F)O3 [Example I-32]
logP [a] = log P (HCOOH) ([1]; pH 2.7): 1.99
logP [b] = log P (neutral) ([1]; pH 7.8): 2.85
efficacy (kill of larvae) ([11]; 20 ppm): 80%
efficacy (kill of larvae) ([12]; 20 ppm): 80%
efficacy (aphids killed) ([3]; 500 g/ha): 90%
efficacy (kill of aphids) [4]: 90%

CCSc1ccccc1-c1cnc2ccc(C(F)(F)F)cc2n1 [Example I-36]
logP [a] = log P (HCOOH) ([1]; pH 2.7): 4.79
efficacy (laying of fertile eggs) [2]: 90%
efficacy (beetle larvae killed) [9]: 83%
efficacy (spider mites killed) [15]: 90%
efficacy (aphids killed) ([3]; 500 g/ha): 90%

Clc1ccc2nc(-c3cccnc3)cnc2c1 [Example I-40]
logP [a] = log P (HCOOH) [1, 16]: 2.01
logP [b] = log P (neutral) [1, 17]: 2.43
efficacy (kill of larvae) ([12]; 20 ppm): 90%

FC1(F)Oc2cc3ncc(-c4ccncc4)nc3cc2O1 [Example I-74]
logP [a] = log P (HCOOH) [1, 16]: 1.98
nematicidal efficacy (formation of galls) [8]: 90%
